Kd data for 2 molecules are collected here from article doi:10.1101/2025.10.23.684218v2, “Development of a dual chemical probe for the USP16 and HDAC6 zinc-finger ubiquitin-binding domain” (biorxiv, 2025).

What all share (experiment): biochemical
Design in all cases: SPR, steady-state binding to immobilised biotinylated UBD proteins

One experiment concerns the target T1, USP3 (Homo sapiens, UniProt Q9Y6I4).
T1 sequence (Q9Y6I4 1-520): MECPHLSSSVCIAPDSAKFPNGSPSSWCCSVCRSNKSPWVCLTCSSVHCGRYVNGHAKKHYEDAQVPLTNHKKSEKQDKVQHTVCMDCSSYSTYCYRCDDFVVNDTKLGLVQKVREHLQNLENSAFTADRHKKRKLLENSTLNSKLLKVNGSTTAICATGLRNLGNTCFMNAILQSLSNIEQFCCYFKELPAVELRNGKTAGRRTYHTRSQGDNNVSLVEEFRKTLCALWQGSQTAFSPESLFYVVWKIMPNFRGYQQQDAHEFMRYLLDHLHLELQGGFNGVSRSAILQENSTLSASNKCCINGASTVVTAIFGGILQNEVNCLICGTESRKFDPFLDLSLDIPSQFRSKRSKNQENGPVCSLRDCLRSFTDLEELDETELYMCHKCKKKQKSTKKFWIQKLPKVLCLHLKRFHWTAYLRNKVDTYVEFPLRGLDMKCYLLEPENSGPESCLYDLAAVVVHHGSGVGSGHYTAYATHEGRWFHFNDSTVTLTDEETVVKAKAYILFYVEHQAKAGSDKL

In the next experiment the target is T2, USP51 (Homo sapiens, UniProt Q70EK9).
T2 construct: UBD, residues 176-305
T2 sequence (Q70EK9 1-711): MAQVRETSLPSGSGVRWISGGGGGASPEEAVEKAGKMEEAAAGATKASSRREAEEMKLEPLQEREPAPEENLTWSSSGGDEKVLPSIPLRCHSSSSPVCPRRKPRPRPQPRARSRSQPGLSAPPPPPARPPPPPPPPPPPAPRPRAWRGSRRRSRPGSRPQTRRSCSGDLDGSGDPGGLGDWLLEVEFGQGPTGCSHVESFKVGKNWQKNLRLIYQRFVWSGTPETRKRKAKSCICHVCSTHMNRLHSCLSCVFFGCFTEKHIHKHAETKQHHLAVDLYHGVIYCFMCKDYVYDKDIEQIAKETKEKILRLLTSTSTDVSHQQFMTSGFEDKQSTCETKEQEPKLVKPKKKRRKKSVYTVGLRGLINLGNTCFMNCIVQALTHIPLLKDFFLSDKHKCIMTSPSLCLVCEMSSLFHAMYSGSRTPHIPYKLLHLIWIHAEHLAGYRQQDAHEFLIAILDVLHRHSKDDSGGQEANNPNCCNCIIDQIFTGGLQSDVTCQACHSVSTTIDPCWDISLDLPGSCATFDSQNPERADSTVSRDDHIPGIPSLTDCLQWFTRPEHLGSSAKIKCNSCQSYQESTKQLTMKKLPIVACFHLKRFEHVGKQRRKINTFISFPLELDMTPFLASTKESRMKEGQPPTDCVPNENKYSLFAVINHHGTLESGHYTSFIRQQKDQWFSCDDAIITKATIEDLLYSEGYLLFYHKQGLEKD

Another experiment addresses T3, USP13 (Homo sapiens, UniProt Q92995).
T3 construct: UBD, residues 183-307
T3 sequence (Q92995 1-863): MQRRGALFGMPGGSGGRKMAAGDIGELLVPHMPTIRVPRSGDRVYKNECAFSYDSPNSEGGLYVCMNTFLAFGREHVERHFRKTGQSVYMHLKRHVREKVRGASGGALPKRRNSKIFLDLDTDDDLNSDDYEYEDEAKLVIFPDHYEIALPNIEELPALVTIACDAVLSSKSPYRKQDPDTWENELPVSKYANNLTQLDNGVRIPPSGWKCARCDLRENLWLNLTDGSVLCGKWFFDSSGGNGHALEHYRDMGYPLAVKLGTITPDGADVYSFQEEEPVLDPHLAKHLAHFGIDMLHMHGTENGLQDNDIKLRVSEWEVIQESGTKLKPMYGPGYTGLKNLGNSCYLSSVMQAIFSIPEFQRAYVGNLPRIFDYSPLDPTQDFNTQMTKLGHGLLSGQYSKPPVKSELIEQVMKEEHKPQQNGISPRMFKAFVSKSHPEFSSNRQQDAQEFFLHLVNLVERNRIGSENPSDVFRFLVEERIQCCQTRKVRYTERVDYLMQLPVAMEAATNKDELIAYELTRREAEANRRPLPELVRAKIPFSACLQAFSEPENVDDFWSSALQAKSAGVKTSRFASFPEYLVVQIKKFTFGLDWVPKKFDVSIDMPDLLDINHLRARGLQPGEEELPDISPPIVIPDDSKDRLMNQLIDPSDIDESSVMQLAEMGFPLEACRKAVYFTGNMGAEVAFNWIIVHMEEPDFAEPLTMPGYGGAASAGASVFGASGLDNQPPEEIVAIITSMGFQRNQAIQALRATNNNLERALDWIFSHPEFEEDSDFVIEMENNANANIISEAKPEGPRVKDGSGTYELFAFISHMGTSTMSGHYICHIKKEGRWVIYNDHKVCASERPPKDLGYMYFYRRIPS

[1] abbreviates: read-out: Probe KD (nM) SGC-UBD1031.
Setting [2] is: read-out: Negative Control KD (nM) SGC-UBD1031N.

Read-outs that look alike come from different tables or passages of the source.

For the molecule `C[C@H](NC(=O)Cn1c(CCC(=O)O)nc2c(Cl)cccc2c1=O)c1c(F)cccc1F` [compound 15, (S)-3-(8-chloro-3-(2-((1-(2,6-difluorophenyl)ethyl)amino)-2-oxoethyl)-4-oxo-3,4-dihydroquinazolin-2-yl)propanoic acid], the Kd at USP3 (setting [1]), on USP51 (setting [1]) and at USP13 (setting [1]) was more than 10000 nM throughout.
`C[C@@H](NC(=O)Cn1c(CCC(=O)O)nc2c(Cl)cccc2c1=O)c1c(F)cccc1F` [compound 16, (R)-3-(8-chloro-3-(2-((1-(2,6-difluorophenyl)ethyl)amino)-2-oxoethyl)-4-oxo-3,4-dihydroquinazolin-2-yl)propanoic acid]: the Kd – broadly, the constant that tells how readily two partners part at equilibrium – was 8700 ± 1800 nM at USP3 (setting [2]), more than 10000 nM at USP51 (setting [2]) and more than 10000 nM at USP13 (setting [2]).
